# Measurements: patent publication US6127372A, “Sulfonamide inhibitors of aspartyl protease” (Vertex Pharmaceuticals, Incorporated, priority 1996, dated 2000)
# Biological target: HIV-1 protease (Human immunodeficiency virus type 1 group M subtype B, UniProt P04585)
# Assay: Inhibition constants against HIV-1 protease, method of Pennington et al.
# Type: biochemical
# Conditions: not given
row,Compound,Ki
1,COc1ccc(S(=O)(=O)N(CC2CCCC2)C[C@@H](O)CN(CCc2ccccc2)C(=O)Oc2ccccc2)cc1 [Compound 1022],170 nM

# Same assay, conditions: HIV-1 protease; method of Pennington et al.; read-out: Ki
row,Compound,Ki
1,O=C(O[C@H]1CCOC1)N(CCc1ccccc1)C[C@H](O)CN(CC1CCCC1)S(=O)(=O)c1ccc(O)cc1 [Compound 1007],35 nM
2,COc1ccc(S(=O)(=O)N(CC2CCCC2)C[C@@H](O)CN(CCCc2ccccc2)C(=O)O[C@H]2CCOC2)cc1 [Compound 1006],470 nM
3,Nc1ccc(S(=O)(=O)N(CC2CCCC2)C[C@@H](O)CN(CCc2ccccc2)C(=O)O[C@H]2CCOC2)cc1 [Compound 1008],260 nM
4,COc1ccc(S(=O)(=O)N(CC2CCCC2)C[C@H](O)CN(CCc2ccccc2)C(=O)O[C@H]2CCOC2)cc1 [Compound 1000],100 nM
5,CC(C)CN(C[C@@H](O)CN(CCc1ccccc1)C(=O)O[C@H]1CCOC1)S(=O)(=O)c1cccc(N)c1 [Compound 1012],200 nM
6,COc1ccc(S(=O)(=O)N(CC2CCCC2)C[C@@H](O)CN(CCc2ccc(O)cc2)C(=O)O[C@H]2CCOC2)cc1 [Compound 1016],75 nM
7,COc1ccc(S(=O)(=O)N(CC(C)C)CC(O)CNc2ccccc2C(=O)NC(C)(C)C)cc1 (stereo not drawn) [Compound 1002],16000 nM
8,COc1ccc(S(=O)(=O)N(CC2CCCC2)C[C@@H](O)CN(CCc2ccc(O)c(O)c2)C(=O)O[C@H]2CCOC2)cc1 [Compound 1017],110 nM
9,Nc1cccc(S(=O)(=O)N(CC2CCCC2)C[C@@H](O)CN(CCc2ccccc2)C(=O)OC2COCOC2)c1 [Compound 1014],130 nM
10,C=CCOC(=O)N(CCc1ccccc1)C[C@H](O)CN(CC1CCCC1)S(=O)(=O)c1ccc(OC)cc1 [Compound 1021],70 nM
11,Nc1cccc(S(=O)(=O)N(CC2CCCC2)C[C@@H](O)CN(CCc2ccccc2)C(=O)O[C@H]2CCOC2)c1 [Compound 1009],120 nM
12,COc1ccc(S(=O)(=O)N(CC2CCCC2)C[C@@H](O)CN(CCC(C)C)C(=O)O[C@H]2CCOC2)cc1 [Compound 1003],1200 nM
13,Nc1cccc(S(=O)(=O)N(CC2CCCC2)C[C@@H](O)CN(CCc2ccccc2)C(=O)O[C@@H]2COC3OCCC32)c1 (stereo partly drawn) [Compound 1013],50 nM
14,COc1ccc(S(=O)(=O)N(CC2CCCC2)C[C@@H](O)CN(CC(C)C)C(=O)O[C@H]2CCOC2)cc1 [Compound 1004],1300 nM
15,COc1ccc(S(=O)(=O)N(CC2CCCC2)C[C@@H](O)CN(CCc2ccccc2)C(=O)Cc2ccccc2)cc1 [Compound 1020],170 nM
16,COc1ccc(S(=O)(=O)N(CC2CCCC2)C[C@@H](O)CN(CCc2ccccc2)C(=O)OCc2ccccc2)cc1 [Compound 1019],20 nM
17,O=C(OCc1cccnc1)N(CCc1ccccc1)C[C@H](O)CN(CC1CCCC1)S(=O)(=O)c1ccccc1 [Compound 1023],52 nM
18,COc1ccc(S(=O)(=O)N(CC2CCCC2)C[C@@H](O)CN(CCC2CCCCC2)C(=O)O[C@H]2CCOC2)cc1 [Compound 1011],110 nM

# Second part, the compound after the results:
row,Ki,Compound
1,1400 nM,COc1ccc(S(=O)(=O)N(CC(C)C)C[C@@H](O)CC(=O)N2CCN(C(=O)OCc3ccccc3)C[C@H]2C(=O)NC(C)(C)C)cc1 [Compound 1031]
2,160 nM,CC(C)CN(C[C@@H](O)CCN(CC1CCCC1)S(=O)(=O)c1ccc(O)cc1)S(=O)(=O)c1ccc(O)cc1 [XLV]
3,11 nM,COc1ccc(S(=O)(=O)N(CC(C)C)C[C@@H](O)CC(Cc2ccccc2)C(=O)N[C@H]2c3ccccc3C[C@H]2O)cc1 (stereo partly drawn) [LII]
4,> 3000 nM,COc1ccc(S(=O)(=O)N(CC(C)C)C[C@@H](O)CCN(CC2CCCC2)C(=O)O[C@H]2CCOC2)cc1 [Compound 1039]
5,3300 nM,COc1ccc(S(=O)(=O)N(CC(O)CN2CC(c3ccccc3)c3ccccc3C2=O)CC2CCCC2)cc1 (stereo not drawn) [Compound 1048]
6,1100 nM,COc1ccc(S(=O)(=O)N(CC(C)C)C[C@@H](O)CCN(CC(C)C)S(=O)(=O)N(C)C)cc1 [Compound 1034]
7,5000 nM,COc1ccc(S(=O)(=O)N(CC(C)C)C[C@@H](O)CC(Cc2ccccc2)C(=O)NCC(C)C)cc1 (stereo partly drawn) [LI]
8,270 nM,COc1ccc(S(=O)(=O)N(CC2CCCC2)C[C@@H](O)CN(CCc2cccnc2)C(=O)OCc2cccnc2)cc1 [Compound 1025]
9,3500 nM,CCCN(CC(=O)c1ccccc1)C[C@H](O)CN(CC1CCCC1)S(=O)(=O)c1ccc(OC)cc1 [Compound 1029]
10,14 nM,Nc1cccc(S(=O)(=O)N(CC2CCCC2)C[C@@H](O)CN(CCc2ccccc2)C(=O)c2ccncc2)c1 [Compound 1045]
11,66 nM,COc1ccc(S(=O)(=O)N(CC2CCCC2)C[C@@H](O)CN(CCc2ccccc2)C(=O)c2cccc(O)c2C)cc1 [Compound 1024]
12,> 10000 nM,COc1ccc(S(=O)(=O)N(CC(C)C)C[C@H](O)CCN(CC2CCCC2)C(=O)O[C@H]2CCOC2)cc1 [Compound 1040]
13,800 nM,COc1ccc(S(=O)(=O)N(CC2CCCC2)C[C@@H](O)CN(CCc2ccccc2)CC(=O)c2ccccc2)cc1 [Compound 1028]
14,> 10000 nM,COc1ccc(S(=O)(=O)N(CC(C)C)C[C@@H](O)CCN(CCc2ccccc2)C(=O)O[C@H]2CCOC2)cc1 [Compound 1037]
15,270 nM,COc1ccc(S(=O)(=O)N(CC(C)C)C[C@@H](O)CCN(CC2CCCC2)S(=O)(=O)c2cccc(N)c2)cc1 [Compound 1041]
16,20 nM,COc1ccc(S(=O)(=O)N(CC2CCCC2)C[C@@H](O)CN(CCc2ccccc2)C(=O)c2ccccc2)cc1 [Compound 1026]
17,2700 nM,COc1ccc(S(=O)(=O)N(CC[C@H](O)CN2CCN(C(=O)OCc3ccccc3)C[C@H]2C(=O)NC(C)(C)C)CC(C)C)cc1 [LXXVI]
18,1600 nM,COc1ccc(S(=O)(=O)N(CC(C)C)C[C@@H](O)CCN2CCCC[C@H]2C(=O)NC(C)(C)C)cc1 [Compound 1033]
19,3600 nM,COc1ccc(S(=O)(=O)N(CCc2ccccc2)CC[C@H](O)CN(CC(C)C)S(=O)(=O)c2ccc(OC)cc2)cc1 [Compound 1035]
20,8000 nM,COc1ccc(S(=O)(=O)N(CC(C)C)C[C@@H](O)CCN(CCc2ccccc2)C(=O)OC2COC3OCCC23)cc1 (stereo partly drawn) [Compound 1036]
21,220 nM,Nc1cccc(S(=O)(=O)N(CC2CCCC2)C[C@@H](O)CN(CCc2ccccc2)C(=O)c2cccnc2)c1 [Compound 1044]
22,> 10000 nM,COc1ccc(S(=O)(=O)N(CC(C)C)C[C@H](O)CCN(CCc2ccccc2)C(=O)O[C@H]2CCOC2)cc1 [Compound 1038]
23,400 nM,COc1ccc(S(=O)(=O)N(CC[C@H](O)CN(CC(C)C)S(=O)(=O)c2ccc(OC)cc2)CC(C)C)cc1 [XLIVa]
24,167 nM,COc1ccc(S(=O)(=O)N(CC[C@H](O)CN(CC(C)C)S(=O)(=O)c2ccc(OC)cc2)CC2CCCC2)cc1 [LVa]
25,1200 nM,COc1ccc(S(=O)(=O)N(CC(O)CN2C(=O)OC[C@@H]2Cc2ccccc2)CC2CCCC2)cc1 (stereo partly drawn) [Compound 1046]
26,1600 nM,COc1ccc(S(=O)(=O)N(CC2CCCC2)C[C@@H](O)CN(CCc2ccccc2)C(C)=O)cc1 [Compound 1047]
27,3300 nM,COc1ccc(S(=O)(=O)N(CC[C@H](O)CN2CCCC[C@H]2C(=O)NC(C)(C)C)CC(C)C)cc1 [XLVIII]
28,7 nM,COc1ccc(S(=O)(=O)N(CC(O)CN(CCc2ccccc2)C(=O)[C@H](NC(=O)OCc2ccccc2)C(C)C)CC2CCCC2)cc1 (stereo partly drawn) [Compound 1027]

# Same assay, conditions: read-out: Ki
row,Ki,Compound
1,30 nM,COc1ccc(S(=O)(=O)N(CC2CCCC2)C[C@@H](O)CN(CCc2ccccc2)C(=O)O[C@H]2CCOC2)cc1 [Compound 1001]
